Read-outs that look alike come from different tables or passages of the source.
Legend:
Galectin-1 = Galectin-1 (Homo sapiens, UniProt P09382); assay: fluorescence anisotropy assay, compound as inhibitor of galectin / fluorescein tagged saccharide probe interaction; format: binding
Excerpt: (§1) Anal. Biochem. 334: 36-47, (Sörme et al., 2004) and Monovalent interactions of Galectin-1 By Salomonsson, Emma; Larumbe, Amaia; Tejler, Johan; Tullberg, Erik; Rydberg, Hanna; Sundin, Anders; Khabut, Areej; Frejd, Torbjorn; Lobsanov, Yuri D.; Rini, James M.; et al, From Biochemistry (2010), 49(44), 9518-9532, (Salomonsson et al., 2010).

Galectin-3 = Galectin-3 (Homo sapiens, UniProt P17931); assay: as above; format: binding
Excerpt: as §1

Galectin-1, sequence (P09382 whole entry): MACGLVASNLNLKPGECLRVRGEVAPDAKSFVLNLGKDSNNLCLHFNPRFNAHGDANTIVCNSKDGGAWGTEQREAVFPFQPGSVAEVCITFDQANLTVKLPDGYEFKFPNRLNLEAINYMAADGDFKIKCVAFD
Galectin-3, sequence (P17931 whole entry): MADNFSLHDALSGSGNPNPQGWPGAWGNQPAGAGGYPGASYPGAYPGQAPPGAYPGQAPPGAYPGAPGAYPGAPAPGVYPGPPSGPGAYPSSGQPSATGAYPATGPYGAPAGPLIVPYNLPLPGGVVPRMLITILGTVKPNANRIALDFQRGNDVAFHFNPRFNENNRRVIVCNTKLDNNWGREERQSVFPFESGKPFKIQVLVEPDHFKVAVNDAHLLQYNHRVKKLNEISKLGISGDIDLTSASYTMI

Kd (Galectin-1) [nM]	Kd (Galectin-3) [nM]	SMILES	Kd (Galectin-1; read-out: Galectin-1 Kd) [nM]
230	3000	CO[C@@H]1[C@@H](n2cc(-c3nccs3)nn2)[C@@H](O)[C@@H](CO)O[C@@H]1Sc1cncc(Br)c1 [Example 2, 5-Bromopyridin-3-yl 3-deoxy-2-O-methyl-3-[4-(2-thiazolyl)-1H-1,2,3-triazol-1-yl]-1-thio-α-D-galactopyranoside]	–
110	1100	CO[C@@H]1[C@@H](n2cc(-c3nccs3)nn2)[C@@H](O)[C@@H](CO)O[C@@H]1Sc1cc(Br)cnc1C#N [Example 3, 5-Bromo-2-cyanopyridin-3-yl 3-deoxy-2-O-methyl-3-[4-(2-thiazolyl)-1H-1,2,3-triazol-1-yl]-1-thio-α-D-galactopyranoside]	–
110	1200	CO[C@@H]1[C@@H](n2cc(-c3nccs3)nn2)[C@@H](O)[C@@H](CO)O[C@@H]1Sc1cc(Cl)cnc1C#N [Example 4, 5-Chloro-2-cyanopyridin-3-yl 3-deoxy-2-O-methyl-3-[4-(2-thiazolyl)-1H-1,2,3-triazol-1-yl]-1-thio-α-D-galactopyranoside]	–
190	1800	N#Cc1ncc(Cl)cc1S[C@H]1O[C@H](CO)[C@H](O)[C@H](n2cc(-c3nccs3)nn2)[C@H]1OCc1ccccc1 [Example 5, 5-Chloro-2-cyanopyridin-3-yl 2-O-benzyl-3-deoxy-3-[4-(2-thiazolyl)-1H-1,2,3-triazol-1-yl]-1-thio-α-D-galactopyranoside]	–
96	950	N#Cc1ncc(Cl)cc1S[C@H]1O[C@H](CO)[C@H](O)[C@H](n2cc(-c3nccs3)nn2)[C@H]1OCc1cc(F)c(O)c(F)c1 [Example 6, 5-Chloro-2-cyanopyridin-3-yl 3-deoxy-2-O-(3,5-difluoro-4-hydroxybenzyl)-3-[4-(2-thiazolyl)-1H-1,2,3-triazol-1-yl]-1-thio-α-D-galactopyranoside]	–
100	> 100000	CC(C)O[C@@H]1[C@@H](n2cc(-c3csc(O)n3)nn2)[C@@H](O)[C@@H](CO)O[C@@H]1Sc1ccc(Cl)c(Cl)c1 [Example 8, 3,4-Dichlorophenyl 3-deoxy-3-[4-(2-hydroxythiazol-4-yl)-1H-1,2,3-triazol-1-yl]-2-O-isopropyl-1-thio-α-D-galactopyranoside]	–
82	5300	OC[C@H]1O[C@H](Sc2ccc(Cl)c(Cl)c2)C[C@@H](n2cc(-c3csc(O)n3)nn2)[C@H]1O [Example 10, 3,4-Dichlorophenyl 2,3-dideoxy-3-[4-(2-hydroxythiazol-4-yl)-1H-1,2,3-triazol-1-yl]-1-thio-α-D-galactopyranoside]	–
19	170	CO[C@@H]1[C@@H](n2cc(-c3nc(Cl)cs3)nn2)[C@@H](O)[C@@H](CO)O[C@@H]1Sc1cc(Br)cnc1C#N [Example 11, 5-Bromo-2-cyanopyridin-3-yl 3-[4-(4-chlorothiazol-2-yl)-1H-1,2,3-triazol-1-yl]-3-deoxy-2-O-methyl-1-thio-α-D-galactopyranoside]	–
24	270	CO[C@@H]1[C@@H](n2cc(-c3nc(Cl)cs3)nn2)[C@@H](O)[C@@H](CO)O[C@@H]1Sc1cnc(C#N)c(Br)c1 [Example 12, 3-Bromo-2-cyanopyridin-5-yl 3-[4-(4-chlorothiazol-2-yl)-1H-1,2,3-triazol-1-yl]-3-deoxy-2-O-methyl-1-thio-α-D-galactopyranoside]	–
25	160	CO[C@@H]1[C@@H](n2cc(-c3nc(Cl)cs3)nn2)[C@@H](O)[C@@H](CO)O[C@@H]1Sc1cc(Cl)cnc1C#N [Example 13, 5-Chloro-2-cyanopyridin-3-yl 3-[4-(4-chlorothiazol-2-yl)-1H-1,2,3-triazol-1-yl]-3-deoxy-2-O-methyl-1-thio-α-D-galactopyranoside]	–
30	370	CO[C@@H]1[C@@H](n2cc(-c3nc(Cl)cs3)nn2)[C@@H](O)[C@@H](CO)O[C@@H]1Sc1cnc(C#N)c(Cl)c1 [Example 14, 3-Chloro-2-cyanopyridin-5-yl 3-[4-(4-chlorothiazol-2-yl)-1H-1,2,3-triazol-1-yl]-3-deoxy-2-O-methyl-1-thio-α-D-galactopyranoside]	–
56	200	CO[C@@H]1[C@@H](n2cc(-c3csc(Cl)n3)nn2)[C@@H](O)[C@@H](CO)O[C@@H]1Sc1cc(Cl)cnc1C#N [Example 15, 5-Chloro-2-cyanopyridin-3-yl 3-[4-(2-chlorothiazol-4-yl)-1H-1,2,3-triazol-1-yl]-3-deoxy-2-O-methyl-1-thio-α-D-galactopyranoside]	–
33	1900	CO[C@@H]1[C@@H](n2cc(-c3csc(N)n3)nn2)[C@@H](O)[C@@H](CO)O[C@@H]1Sc1cc(Cl)cnc1C#N [Example 17, 5-Chloro-2-cyanopyridin-3-yl 3-[4-(2-aminothiazol-4-yl)-1H-1,2,3-triazol-1-yl]-3-deoxy-2-O-methyl-1-thio-α-D-galactopyranoside]	–
120	5400	CO[C@@H]1[C@@H](n2cc(-c3csc(N)n3)nn2)[C@@H](O)[C@@H](CO)O[C@@H]1Sc1cc(Cl)cnc1C [Example 18, 5-Chloro-2-methylpyridin-3-yl 3-[4-(2-aminothiazol-4-yl)-1H-1,2,3-triazol-1-yl]-3-deoxy-2-O-methyl-1-thio-α-D-galactopyranoside]	–
79	1800	N#Cc1ncc(Cl)cc1S[C@H]1O[C@H](CO)[C@H](O)[C@H](n2cc(-c3csc(N)n3)nn2)[C@H]1OCc1ccccc1 [Example 19, 5-Chloro-2-cyanopyridin-3-yl 3-[4-(2-aminothiazol-4-yl)-1H-1,2,3-triazol-1-yl]-2-O-benzyl-3-deoxy-1-thio-α-D-galactopyranoside]	–
67	6200	CCO[C@@H]1[C@@H](n2cc(-c3csc(N)n3)nn2)[C@@H](O)[C@@H](CO)O[C@@H]1Sc1cc(Cl)cnc1C [Example 20, 5-Chloro-2-methylpyridin-3-yl 3-[4-(2-aminothiazol-4-yl)-1H-1,2,3-triazol-1-yl]-3-deoxy-2-O-ethyl-1-thio-α-D-galactopyranoside]	–
45	2300	CO[C@@H]1[C@@H](n2cc(-c3csc(N)n3)nn2)[C@@H](O)[C@@H](CO)O[C@@H]1Sc1cc(Cl)cnc1-c1cncnc1 [Example 21, 5-Chloro-2-(pyrimidin-5-yl)pyridin-3-yl 3-[4-(2-aminothiazol-4-yl)-1H-1,2,3-triazol-1-yl]-3-deoxy-2-O-methyl-1-thio-α-D-galactopyranoside]	–
26	4100	CO[C@@H]1[C@@H](n2cc(-c3csc(N)n3)nn2)[C@@H](O)[C@@H](CO)O[C@@H]1Sc1cc(Cl)cnc1-c1ccncc1 [Example 22, 5-Chloro-2-(pyridin-4-yl)pyridin-3-yl 3-[4-(2-aminothiazol-4-yl)-1H-1,2,3-triazol-1-yl]-3-deoxy-2-O-methyl-1-thio-α-D-galactopyranoside]	–
30	4200	CO[C@@H]1[C@@H](n2cc(-c3csc(N)n3)nn2)[C@@H](O)[C@@H](CO)O[C@@H]1Sc1cc(Cl)cnc1-c1cccnc1 [Example 23, 5-Chloro-2-(pyridin-3-yl)pyridin-3-yl 3-[4-(2-aminothiazol-4-yl)-1H-1,2,3-triazol-1-yl]-3-deoxy-2-O-methyl-1-thio-α-D-galactopyranoside]	–
150	3300	CO[C@@H]1[C@@H](n2cc(-c3csc(N)n3)nn2)[C@@H](O)[C@@H](CO)O[C@@H]1Sc1cc(Cl)cnc1C1=CCNCC1 [Example 24, 5-Chloro-2-(1,2,3,6-tetrahydropyridin-4-yl)pyridin-3-yl 3-[4-(2-aminothiazol-4-yl)-1H-1,2,3-triazol-1-yl]-3-deoxy-2-O-methyl-1-thio-α-D-galactopyranoside]	–
24	740	N#Cc1ncc(Cl)cc1S[C@H]1O[C@H](CO)[C@H](O)[C@H](n2cc(-c3csc(N)n3)nn2)[C@H]1OCc1cc(F)c(O)c(F)c1 [Example 25, 5-Chloro-2-cyanopyridin-3-yl 3-[4-(2-aminothiazol-4-yl)-1H-1,2,3-triazol-1-yl]-3-deoxy-2-O-(3,5-difluoro-4-hydroxybenzyl)-1-thio-α-D-galactopyranoside]	–
17	1700	CO[C@@H]1[C@@H](n2cc(-c3csc(N)n3)nn2)[C@@H](O)[C@@H](CO)O[C@@H]1Sc1cc(Cl)cnc1-c1ccccn1 [Example 26, 5-Chloro-2-(pyridin-2-yl)pyridin-3-yl 3-[4-(2-aminothiazol-4-yl)-1H-1,2,3-triazol-1-yl]-3-deoxy-2-O-methyl-1-thio-α-D-galactopyranoside]	–

SMILES	Kd (Galectin-1) [nM]	Kd (Galectin-3) [nM]	Kd (Galectin-1; read-out: Galectin-1 Kd) [nM]
CO[C@@H]1[C@@H](n2cc(-c3csc(O)n3)nn2)[C@@H](O)[C@@H](CO)O[C@@H]1Sc1cc(Cl)c(F)c(Cl)c1 [Example 7, 3,5-Dichloro-4-fluorophenyl 3-deoxy-3-[4-(2-hydroxythiazol-4-yl)-1H-1,2,3-triazol-1-yl]-2-O-methyl-1-thio-α-D-galactopyranoside]	–	2600	29
CO[C@@H]1[C@@H](n2cc(-c3csc(O)n3)nn2)[C@@H](O)[C@@H](CO)O[C@@H]1Sc1ccc(Cl)c(Cl)c1 [Example 9, 3,4-Dichlorophenyl 3-deoxy-3-[4-(2-hydroxythiazol-4-yl)-1H-1,2,3-triazol-1-yl]-2-O-methyl-1-thio-α-D-galactopyranoside]	–	4600	41
CO[C@@H]1[C@@H](n2cc(-c3csc(N)n3)nn2)[C@@H](O)[C@@H](CO)O[C@@H]1Sc1cc(Cl)c(F)c(Cl)c1 [Example 16, 3,5-Dichloro-4-fluorophenyl 3-[4-(2-aminothiazol-4-yl)-1H-1,2,3-triazol-1-yl]-3-deoxy-2-O-methyl-1-thio-α-D-galactopyranoside]	–	8400	69

— patent US12441754B2, “Galactoside inhibitor of galectins” (GALECTO BIOTECH AB, priority 2019, dated 2025)
